The test addresses T1, NLRP3 (Homo sapiens, UniProt Q96P20).
T1 construct: host or cells: PMA-differentiated THP-1 cells
Kind of test: Measurement of IL-1β production (NLRP3 hIL1β EC50), PMA-differentiated THP-1 cells. Format: cell-based. The note with it: human IL-1β production; assayed using one or more of the described procedures. How it is done:
THP-1 cells were purchased from the American Type Culture Collection and sub-cultured according to instructions from the supplier. Prior to experiments, cells were cultured in RPMI 1640 containing 10% heat inactivated FBS, penicillin (100 units/ml) and streptomycin (100 μg/ml), and maintained in log phase prior to experimental setup. Prior to the experiment THIP-1 were treated with PMA (Phorbol 12-myristate 13-acetate) (10 μg/ml) for 24 hours. The day of the experiment the media was removed and attaching cells were treated with trypsin for 2 minutes, cells were then collected, washed with PBS (phosphate buffer saline), spin down, resuspended in 2% heat inactivated FBS with RPMI at a concentration of 1×10^6 cells/ml, and 100 μl was plated in a 96 well plate. Compounds were dissolved in dimethyl sulfoxide (DMSO) and added to the culture medium to achieve desired concentration (e.g. 100, 30, 10, 3, 1, 0.3 or 0.1 μM). Cells were incubated with compounds for 4 hours. Cell free supernatant was collected and the production of IL-1β was evaluated by ELISA. A vehicle only control was run concurrently with each experiment. Final DMSO concentration was 1%.
THP-1 cells were purchased from the American Type Culture Collection and sub-cultured according to instructions from the supplier. Prior to experiments, cells were cultured in RPMI 1640 containing 10% heat inactivated FBS, penicillin (100 units/ml), streptomycin (100 μg/ml), HEPES (10 mM) and sodium pyruvate (1 mM) and maintained in log phase prior to experimental setup. Prior to the experiment, THP-1 cells were treated with PMA (Phorbol 12-myristate 13-acetate) (20 μg/ml) overnight. The day of the experiment, the media was removed and attached cells were treated with trypsin for 2 minutes, cells were then collected, washed with PBS (phosphate buffer saline), pelleted by centrifugation and resuspended in 2% heat inactivated FBS with RPMI at a concentration of 50,000 cells/well in a 384 well plate. Cell free supernatant was collected and the production of IL-1β was evaluated by ELISA. Compounds were dissolved in dimethyl sulfoxide (DMSO) and added to the culture medium to achieve desired concentration (e.g. 100, 30, 10, 3, 1, 0.3 or 0.1 μM). Cells were incubated with compounds for 2 hours. A vehicle only control was run concurrently with each experiment. Final DMSO concentration was 1%.
Serial dilutions of compounds in DMSO were added to low volume 384 well plates at 100 nl/well using an ECHO 550 acoustic dispenser (Labcyte) to achieve final starting concentration of 10 μM in assay.
THP-1 cells in RPMI (Gibco, 11875) media with 10% FBS at a density of 1×10^6 cell/ml in a T175 flask were treated with a final concentration of phorbol 12-myristate 13-acetate (PMA) (Sigma,P1585) of 50 ng/ml overnight at 37° C. at 5% CO2 for differentiation. Cells were harvested the next day after rinsing well with dPBS using 0.5% trypsin. A cell solution was prepared of 1×10^6 cells/ml for 50,000 cells in 50 μl/well in RPMI media with 2% FBS. Cells were plated using a multichannel pipette onto the compound dilutions in Greiner, 384 well, black clear bottom tissue culture treated plates (781090). The plates were incubated in 37° C. incubator at 5% CO2 for 2 hours.
After the 2 hour incubation, the cell plates were spun in the centrifuge for 5 minutes at 1200 rpm. Using the Felix (CyBio), 8 μl of the supernatant was transferred to 384 well, low volume, white proxy plates. (Perkin Elmer, 6008230). A human IL1beta hTRF kit was used to analyze the supernatant (CISBIO, 62HIL1BPEG). The kit instructions were followed for preparing the IL1Beta standard curve and then the antibodies from the kit were diluted 1:40 rather than 1:20 as kit instructed. Once combined, the antibodies were added across the plates, 5 μl/well. The plates were sealed and incubated at 4° C. overnight. The plates were then read on the Perkin Elmer EnVision at 665/615 nm using the hTRF laser.

T1 sequence (Q96P20 whole entry): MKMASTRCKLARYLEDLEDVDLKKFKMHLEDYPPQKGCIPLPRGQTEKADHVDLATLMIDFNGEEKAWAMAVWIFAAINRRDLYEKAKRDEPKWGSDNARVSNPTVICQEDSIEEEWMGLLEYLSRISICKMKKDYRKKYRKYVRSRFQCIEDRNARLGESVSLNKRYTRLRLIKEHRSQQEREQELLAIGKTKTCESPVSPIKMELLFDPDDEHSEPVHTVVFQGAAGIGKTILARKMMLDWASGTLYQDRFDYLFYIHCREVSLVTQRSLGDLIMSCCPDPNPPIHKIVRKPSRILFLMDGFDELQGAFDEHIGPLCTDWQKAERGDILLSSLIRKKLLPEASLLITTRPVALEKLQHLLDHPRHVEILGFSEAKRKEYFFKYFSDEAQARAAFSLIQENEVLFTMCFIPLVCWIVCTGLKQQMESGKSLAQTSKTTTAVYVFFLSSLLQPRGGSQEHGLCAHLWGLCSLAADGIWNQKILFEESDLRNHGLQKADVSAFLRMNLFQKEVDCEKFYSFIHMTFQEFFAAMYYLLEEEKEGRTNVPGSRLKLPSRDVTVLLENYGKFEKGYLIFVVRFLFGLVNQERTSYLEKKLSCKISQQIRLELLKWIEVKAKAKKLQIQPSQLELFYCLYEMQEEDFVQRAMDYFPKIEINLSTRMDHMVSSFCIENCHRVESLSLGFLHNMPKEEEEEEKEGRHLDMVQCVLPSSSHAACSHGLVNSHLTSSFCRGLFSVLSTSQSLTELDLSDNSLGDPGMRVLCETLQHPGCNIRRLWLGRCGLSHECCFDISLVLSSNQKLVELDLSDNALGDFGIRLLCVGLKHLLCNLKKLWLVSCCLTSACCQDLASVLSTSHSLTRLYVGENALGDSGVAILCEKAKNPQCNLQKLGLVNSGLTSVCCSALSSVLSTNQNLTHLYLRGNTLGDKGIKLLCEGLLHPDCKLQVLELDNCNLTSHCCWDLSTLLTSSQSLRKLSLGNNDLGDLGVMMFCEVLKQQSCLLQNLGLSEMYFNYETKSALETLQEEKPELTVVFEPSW

Broadly, the EC50 is the concentration that produces a half-maximal response. A lower EC50 goes with a more potent agent. Regarding `CC(C)(C)C(=O)N1CCC[C@@H](c2nc3c(N)nc4cc(-c5cc[nH]n5)ccc4c3[nH]2)C1` [Example 61], the EC50 stood at 2300 nM. Next, `Nc1nc2cc(-c3cc[nH]n3)ccc2c2[nH]c([C@H]3CCCN(C(=O)C4CC4)C3)nc12` [Example 29]: 2400 nM; `CC(=O)N1CCC[C@H](c2nc3c(N)nc4cc(-c5cc[nH]n5)ccc4c3[nH]2)C1` [Example 24]: 770 nM; `N#CC1(C(=O)N2CCC[C@@H]2Cc2nc3c(N)nc4cc(-c5cc[nH]n5)ccc4c3[nH]2)CCCC1` [Example 83]: 6600 nM. The same measure for `N#CC1(C(=O)N2CCC[C@H]2Cc2nc3c(N)nc4cc(-c5cc[nH]n5)ccc4c3[nH]2)CCCC1` [Example 95]: 6500 nM; for `N#CC1(C(=O)N2CCC[C@H]2Cc2nc3c(N)nc4cc(-c5cc[nH]n5)ccc4c3[nH]2)CCC1` [Example 94]: 6200 nM. Next, `CCC(=O)N1CCC[C@H](c2nc3c(N)nc4cc(-c5cc[nH]n5)ccc4c3n2C(C)C)C1` [Example 5, (S)-1-(3-(4-Amino-1-isopropyl-7-(1H-pyrazol-3-yl)-1H-imidazo[4,5-c]quinolin-2-yl)piperidin-1-yl)propan-1-one]: 330 nM. On to `Nc1nc2cc(-c3cc[nH]n3)ccc2c2[nH]c([C@@H]3CCCN(C(=O)c4ccccc4)C3)nc12` [Example 67], for which the EC50 was determined as 1800 nM. The same measure for `COCC(=O)N1CCC[C@@H](c2nc3c(N)nc4cc(-c5cc[nH]n5)ccc4c3[nH]2)C1` [Example 64]: 9900 nM; for `CCCC(=O)N1CCC[C@H](c2nc3c(N)nc4cc(-c5cc[nH]n5)ccc4c3[nH]2)C1` [Example 27]: 890 nM; for `CCC(=O)N1CC[C@H](c2nc3c(N)nc4cc(-c5cc[nH]n5)ccc4c3[nH]2)C1` [Example 9, (S)-1-(3-(4-Amino-7-(1H-pyrazol-3-yl)-1H-imidazo[4,5-c]quinolin-2-yl)pyrrolidin-1-yl)propan-1-one]: 6600 nM. For `Nc1nc2cc(-c3cc[nH]n3)ccc2c2[nH]c(C[C@@H]3CCCN3C(=O)C3CCC3)nc12` [Example 89], the EC50 came to 2800 nM. This EC50 is about 2.4-fold lower than that of the molecule before.

`CCC(=O)N1CCC[C@@H]1Cc1nc2c(N)nc3cc(-c4cc[nH]n4)ccc3c2[nH]1` [Example 15, (R)-1-(2-((4-Amino-7-(1H-pyrazol-3-yl)-1H-imidazo[4,5-c]quinolin-2-yl)methyl)pyrrolidin-1-yl)propane-1-one] had an EC50 of 1800 nM. Next, `CC(=O)N1CCC(Cc2nc3c(N)nc4cc(-c5cc[nH]n5)ccc4c3[nH]2)C1` (centres unmarked) [Example 20, 1-(3-((4-Amino-7-(1H-pyrazol-3-yl)-1H-imidazo[4,5-c]quinolin-2-yl)methyl)pyrrolidin-1-yl)ethan-1-one]: 4900 nM; `CCn1c([C@H]2CCCN(C(=O)C3(C#N)CC3)C2)nc2c(N)nc3cc(-c4cc[nH]n4)ccc3c21` [Example 45]: 110 nM.

The molecule `COCC(=O)N1CCC[C@@H]1Cc1nc2c(N)nc3cc(-c4cc[nH]n4)ccc3c2[nH]1` [Example 80] registered an EC50 of 6600 nM. This EC50 lies about 60-fold higher than the previous one. Next, `CC(C)C(=O)N1CCC[C@@H]1Cc1nc2c(N)nc3cc(-c4cc[nH]n4)ccc3c2[nH]1` [Example 79]: 1600 nM. Take `Nc1nc2cc(-c3cc[nH]n3)ccc2c2[nH]c([C@H]3CCCN(C(=O)c4ccccc4)C3)nc12` [Example 31]: the EC50 was found to be 1500 nM. Molecule `CCn1c([C@H]2CCCN(C(=O)c3ccccc3)C2)nc2c(N)nc3cc(-c4cc[nH]n4)ccc3c21` [Example 46] had an EC50 of 180 nM.

`Nc1nc2cc(-c3cc[nH]n3)ccc2c2[nH]c([C@H]3CCN(C(=O)CC(F)(F)F)C3)nc12` [Example 74] registered an EC50 of 6800 nM. This EC50 lies about 38-fold higher than the previous one. Next, `Nc1nc2cc(-c3cc[nH]n3)ccc2c2[nH]c(C[C@@H]3CCCN3)nc12` [Example 17, (S)-7-(1H-pyrazol-3-yl)-2-(pyrrolidin-2-ylmethyl)-1H-imidazo[4,5-c]quinolin-4-amine]: 1200 nM. The same measure for `CC(C)C(=O)N1CCC[C@H]1Cc1nc2c(N)nc3cc(-c4cc[nH]n4)ccc3c2[nH]1` [Example 86]: 6400 nM; for `CC(=O)N1CC[C@H](c2nc3c(N)nc4cc(-c5cc[nH]n5)ccc4c3[nH]2)C1` [Example 71]: 4900 nM; for `Nc1nc2cc(-c3cc[nH]n3)ccc2c2[nH]c(C[C@H]3CCCN3C(=O)C3(C(F)(F)F)CC3)nc12` [Example 81]: 4000 nM. For the molecule “(S)-1-(2-((4-amino-7-(1H-pyrazol-3-yl)-1H-imidazo[4,5-c]quinolin-2-yl)methyl)pyrrolidin-1-yl)propane-1-one [Example 18]”, the EC50 turned out to be 4900 nM.

`CCN1CCC(Cc2nc3c(N)nc4cc(-c5cc[nH]n5)ccc4c3[nH]2)C1` (centres unmarked) [Example 21, 2-((1-Ethylpyrrolidin-3-yl)methyl)-7-(1H-pyrazol-3-yl)-1H-imidazo[4,5-c]quinolin-4-amine] returned an EC50 of 880 nM. The same measure for `CC(C)CC(=O)N1CCC[C@@H](c2nc3c(N)nc4cc(-c5cc[nH]n5)ccc4c3[nH]2)C1` [Example 66]: 3500 nM; for `Nc1nc2cc(-c3cc[nH]n3)ccc2c2[nH]c([C@@H]3CCCN(C(=O)C4CCC4)C3)nc12` [Example 8, (R)-(3-(4-Amino-7-(1H-pyrazol-3-yl)-1H-imidazo[4,5-c]quinolin-2-yl)piperidin-1-yl)(cyclobutyl)methanone]: 1900 nM. `N#CC1(C(=O)N2CCC[C@@H](c3nc4c(N)nc5cc(-c6cc[nH]n6)ccc5c4[nH]3)C2)CCC1` [Example 69]: the EC50 stood at 2000 nM. This EC50 and that of the molecule before are within 1.5-fold of each other. As for `N#CC1(C(=O)N2CCC[C@H]2Cc2nc3c(N)nc4cc(-c5cc[nH]n5)ccc4c3[nH]2)CC1` [Example 92], the EC50 turned out to be 9400 nM. The same measure for `CCC(=O)N1CCC[C@H](c2nc3c(N)nc4cc(-c5cc[nH]n5)ccc4c3n2CC)C1` [Example 4, (S)-1-(3-(4-Amino-1-ethyl-7-(1H-pyrazol-3-yl)-1H-imidazo[4,5-c]quinolin-2-yl)piperidin-1-yl)propan-1-one]: 260 nM. As to `Nc1nc2cc(-c3cc[nH]n3)ccc2c2[nH]c([C@H]3CCCNC3)nc12` [Example 2, (S)-2-(Piperidin-3-yl)-7-(1H-pyrazol-3-yl)-1H-imidazo[4,5-c]quinolin-4-amine], the EC50 turned out to be 510 nM. Next, `Nc1nc2cc(-c3cc[nH]n3)ccc2c2[nH]c(C[C@@H]3CCCN3C(=O)C3(C(F)(F)F)CC3)nc12` [Example 93]: 3200 nM; `CC(C)n1c([C@H]2CCCN(C(=O)c3ccccc3)C2)nc2c(N)nc3cc(-c4cc[nH]n4)ccc3c21` [Example 56]: 300 nM; `CCn1c([C@H]2CCCN(C(=O)CC(C)C)C2)nc2c(N)nc3cc(-c4cc[nH]n4)ccc3c21` [Example 43]: 210 nM. The same measure for `CC(C)(C)OC(=O)N1CC[C@@H](c2nc3c(N)nc4cc(-c5cc[nH]n5)ccc4c3[nH]2)C1` [Example 10, tert-Butyl (R)-3-(4-amino-7-(1H-pyrazol-3-yl)-1H-imidazo[4,5-c]quinolin-2-yl)pyrrolidine-1-carboxylate]: 750 nM; for `CCn1c([C@H]2CCCN(C(=O)CCOC)C2)nc2c(N)nc3cc(-c4cc[nH]n4)ccc3c21` [Example 47]: 640 nM; for `CCn1c([C@H]2CCCN(C(=O)Cc3ccccc3)C2)nc2c(N)nc3cc(-c4cc[nH]n4)ccc3c21` [Example 50]: 220 nM.

Source of the values: patent US12492200B2, “NLRP3 modulators” (INNATE TUMOR IMMUNITY, INC., priority 2020, dated 2025).
